Patent publication EP0372582A2, “6-Aminoalkyl carbapenems” (Bristol-Myers Squibb Company, priority 1988, dated 1990)
Like-named read-outs stand apart in the source and are kept apart here.

Assays:
[1] = Chemical stability in aqueous solution (half-life); assay type: physicochemical
Method: Chemical stability in aqueous solution at pH 7.4 and pH 2.0 is reported as half-life (t1/2). These values are determined by interpolation from a graph of concentration of test substance remaining in solution after storage under selected conditions for various periods of time.

[2] = system: E. coli; test: Protective dose (PD50) in infected animals; assay type: in vivo, mice; parameters: unit not given here
Source text: (§1) The PD₅₀ values are protective doses, or the dose of test compound which secures survival of 50% of the animals of a test group, usually mice, during a designated period of time after being infected with an inoculum of infectious organism which will result in death of all inoculated untreated animals during that test period.

[3] = Blood concentration parameters after administration to mice; assay type: in vivo; settings: for AUC / Cmax / half-life: mouse, mice; for half-life: blood half-life; for U.R.: listed after the PO/50 lines, abbreviation not defined
Source text: […] "Cmax" is the maximum concentration achieved, "t1/2" is the half-life or time for half of the absorbed material to disappear from the blood stream.

[4] = system: E. coli A15119; test: M.I.C., tube dilution method in Nutrient Broth; assay type: cell-based; settings: unit assumed
Method: (§2) The following procedures illustrate the application of the process of this invention to the preparation of a variety of compounds of Formula V. In many instances, data illustrating the biological activity of the substances as antibiotics are presented. […] It is determined by interpolation from a graph of concentration versus number of cells following exposure of the organism to the test compound under growth conditions. Another parameter such as optical density which is proportional to the cell count may be used. In some instances MIC₉₀ values are also given. The latter refers to 90% growth inhibition.

[5] = system: Staph aur. Pen+; test: M.I.C., tube dilution method in Nutrient Broth; assay type: cell-based; settings: unit assumed
Method: as §2

[6] = system: Str. pneu. A9585; test: M.I.C., tube dilution method in Nutrient Broth; assay type: cell-based; settings: unit assumed
Method: as §2

[7] = system: Staph. serum; test: M.I.C., tube dilution method in Nutrient Broth; assay type: cell-based; settings: unit assumed
Method: as §2

[8] = system: P. morg. A15153; test: M.I.C., tube dilution method in Nutrient Broth; assay type: cell-based; settings: unit assumed
Method: as §2

[9] = system: Staph. aur. A9537; test: M.I.C., tube dilution method in Nutrient Broth; assay type: cell-based; settings: unit assumed
Method: as §2

[10] = system: P. rett. A22424; test: M.I.C., tube dilution method in Nutrient Broth; assay type: cell-based; settings: unit assumed
Method: as §2

[11] = system: Ser. mars. A20019; test: M.I.C., tube dilution method in Nutrient Broth; assay type: cell-based; settings: unit assumed
Method: as §2

[12] = system: E. coli A20341; test: M.I.C., tube dilution method in Nutrient Broth; assay type: cell-based; settings: unit assumed
Method: as §2

[13] = system: Ent. clo. A9659; test: M.I.C., tube dilution method in Nutrient Broth; assay type: cell-based; settings: unit assumed
Method: as §2

[14] = system: Staph aur. MR; test: M.I.C., tube dilution method in Nutrient Broth; assay type: cell-based; settings: unit assumed
Method: as §2

[15] = system: Str. pyo. A9604; test: M.I.C., tube dilution method in Nutrient Broth; assay type: cell-based; settings: unit assumed
Method: as §2

[16] = system: P. vul. A21559; test: M.I.C., tube dilution method in Nutrient Broth; assay type: cell-based; settings: unit assumed
Method: as §2

[17] = system: K. pneu. A20468; test: M.I.C., tube dilution method in Nutrient Broth; assay type: cell-based; settings: unit assumed
Method: as §2

[18] = system: P. mir. A9900; test: M.I.C., tube dilution method in Nutrient Broth; assay type: cell-based; settings: unit assumed
Method: as §2

[19] = system: Str. faec. A20688; test: M.I.C., tube dilution method in Nutrient Broth; assay type: cell-based; settings: unit assumed
Method: as §2

[20] = system: Ent. clo. A9656; test: M.I.C., tube dilution method in Nutrient Broth; assay type: cell-based; settings: unit assumed
Method: as §2

[21] = system: Ps. aeru. CarbR; test: M.I.C., tube dilution method in Nutrient Broth; assay type: cell-based; settings: unit assumed
Method: as §2

[22] = system: K. pneu. A9664; test: M.I.C., tube dilution method in Nutrient Broth; assay type: cell-based; settings: unit assumed
Method: as §2

[23] = system: Ps. aeru. A9843; test: M.I.C., tube dilution method in Nutrient Broth; assay type: cell-based; settings: unit assumed
Method: as §2

[24] = system: S. pneu; test: Protective dose (PD50) in infected animals; assay type: in vivo, mice; parameters: unit not given beside the values; settings: PO
Source text: as §1

[25] = citric acid buffer, pH 2, 37°C, pH 2.0 citric acid buffer, by hplc, read-out: t1/2, pH 2
[26] = phosphate buffer, pH 7.4, 37°C, pH 7.4 phosphate buffer, by uv, read-out: t1/2, pH 7.4 (converted)
[27] = blood, PO, 50 mg/kg, read-out: Cmax, PO/50
[28] = blood, 20 mg/kg, IM/20, read-out: Cmax, IM/20

Work on `CSC1=C(C(=O)O)N2C(=O)[C@H]([C@@H](C)N)[C@H]2[C@H]1C` [Procedure 9, (5S,6R) 6-(1′R-Aminoethyl)-4R-methyl-3-methylthio-7-oxo-1-azabicyclo[3.2.0]hept-2-ene-2-carboxylic Acid] yielded a half-life [1, 25] of 212 min, a half-life ([1]; phosphate buffer, pH 7.4, 22°C, pH 7.4 phosphate buffer, read-out: half-life (converted)) of 2340 min and a half-life [1, 26] of 408 min. The “PD50, E. coli” value ([2]; IM) was 25.00, the “PD50, E. coli” value ([2]; PO) was 12.50 and the AUC ([3]; blood, PO, 50 mg/kg) was 5000 ng·h/mL. It also gave a Cmax [3, 27] of 9000 ng/mL and a half-life ([3]; PO, 50 mg/kg) of 18 min.
For `C[C@@H](N)[C@H]1C(=O)N2C(C(=O)O)=C(SCc3cn(C)nn3)[C@H](C)[C@H]12` [Procedure 15], the half-life [1, 25] was 144 min, the half-life [1, 26] was 186 min and the “PD50, E. coli” value ([2]; PO) was 21.80. For the same molecule, the U.R. [3] was 11, the AUC ([3]; in vivo, PO, 50 mg/kg) was 25000 ng·h/mL and the half-life ([3]; in vivo, PO, 50 mg/kg) was 24 min. The Cmax ([3]; in vivo, PO, 50 mg/kg, read-out: Cmax, PO/50) was 29000 ng/mL, the M.I.C. E. coli A15119 [4] was 0.03 µg/mL and the M.I.C. Staph aur. Pen+ [5] was 4 µg/mL. It also gave a M.I.C. Str. pneu. A9585 [6] of 1 µg/mL, a M.I.C. Staph. serum [7] of 4 µg/mL and a M.I.C. P. morg. A15153 [8] of 0.13 µg/mL. The M.I.C. Staph. aur. A9537 [9] was 4 µg/mL, the M.I.C. P. rett. A22424 [10] was 4 µg/mL and the M.I.C. Ser. mars. A20019 [11] was 0.13 µg/mL. The M.I.C. E. coli A20341 [12] was 0.03 µg/mL, the M.I.C. Ent. clo. A9659 [13] was 0.13 µg/mL and the M.I.C. Staph aur. MR [14] was 32 µg/mL. The M.I.C. Str. pyo. A9604 [15] was 1 µg/mL, the M.I.C. P. vul. A21559 [16] was 0.06 µg/mL and the M.I.C. K. pneu. A20468 [17] was 0.13 µg/mL. It also gave a M.I.C. P. mir. A9900 [18] of 0.03 µg/mL, a M.I.C. Str. faec. A20688 [19] of 125 µg/mL and a M.I.C. Ent. clo. A9656 [20] of 0.03 µg/mL. It also gave a M.I.C. Ps. aeru. CarbR [21] of 16 µg/mL, a M.I.C. K. pneu. A9664 [22] of 0.13 µg/mL and a M.I.C. Ps. aeru. A9843 [23] of 2 µg/mL.
For `C[C@@H](N)[C@H]1C(=O)N2C(C(=O)O)=C(SCc3ccccn3)[C@H](C)[C@H]12` [Procedure 18, (5S,6R) 6-(1′R-Aminoethyl)-4R-methyl-3-[(pyridin-2-yl)methylthio]-7-oxo-1-azabicyclo[3.2.0]hept-2-ene-2-carboxylic Acid], the half-life [1, 25] was 120 min, the half-life [1, 26] was 168 min and the “PD50, E. coli” value ([2]; PO) was 11.20. The U.R. [3] was 17, the half-life ([3]; 20 mg/kg, IM/20) was 15 min and the AUC ([3]; blood, 20 mg/kg, IM/20) was 11000 ng·h/mL. For the same molecule, the Cmax [3, 28] was 24000 ng/mL, the AUC ([3]; blood, PO, 50 mg/kg) was 32000 ng·h/mL and the Cmax [3, 27] was 33000 ng/mL. For the same molecule, the half-life ([3]; PO, 50 mg/kg) was 24 min and the “PD50, S. pneu” value [24] was 16.5.
In the case of `C[C@@H](N)[C@H]1C(=O)N2C(C(=O)O)=C(SCc3cccnc3)[C@H](C)[C@H]12` [Procedure 21, (5S,6R)-6-(1′R-Aminoethyl)-4R-methyl-3-[(pyridin-3-yl)methyl-thio]-7-oxo-1-azabicyclo[3,2,0]hept-2-ene-2-carboxylic Acid], the half-life [1, 25] is reported as 144 min, the half-life [1, 26] is reported as 180 min and the “PD50, E. coli” value ([2]; PO) is reported as 8.10. It also gave a U.R. [3] of 5, a half-life ([3]; 20 mg/kg, IM/20) of 12 min and an AUC ([3]; blood, 20 mg/kg, IM/20) of 7000 ng·h/mL. The Cmax [3, 28] was 18000 ng/mL, the AUC ([3]; blood, PO, 50 mg/kg) was 21000 ng·h/mL and the Cmax [3, 27] was 25000 ng/mL. The half-life ([3]; PO, 50 mg/kg) was 23 min.
With `CSC1=C(C(=O)O)N2C(=O)[C@H]([C@@H](C)NC(=O)CNC(=O)[C@H](C)N)[C@H]2[C@H]1C` [Procedure 38, (5S,6R) 6-(1′R-(L-alanylglycyl)aminoethyl)-4R-methyl-3-methylthio-7-oxo-1-azabicyclo[3.2.0]hept-2-ene--2-carboxylic Acid] the half-life [1, 25] was less than 5 min, the half-life [1, 26] was 1740 min and the “PD50, E. coli” value ([2]; IM) was 12.50. For the same molecule, the “PD50, E. coli” value ([2]; PO) was 25.00 and the Cmax [3, 27] was 2000 ng/mL.
In the case of `CSC1=C(C(=O)O)N2C(=O)[C@H]([C@@H](C)NC(=O)[C@H](CC(C)C)NC(=O)[C@H](C)N)[C@H]2[C@H]1C` [Procedure 39, (5S,6R)-6-{1′R-(L-Alanyl-L-leucyl)aminoethyl}-4R-methyl-3-methylthio-7-oxo-1-azabicyclo[3.2.0]hept-2-ene-2-carboxylic Acid], the half-life [1, 25] is reported as less than 5 min, the half-life [1, 26] is reported as 2760 min and the “PD50, E. coli” value ([2]; IM) is reported as 25.00. For the same molecule, the “PD50, E. coli” value ([2]; PO) was 25.00 and the Cmax [3, 27] was 2000 ng/mL.
`CC[C@H]1C(SCc2cn(C)nn2)=C(C(=O)O)N2C(=O)[C@H]([C@H](C)N)[C@@H]12` [Procedure 52, (5S,6R) 6-(1′S-Aminoethyl)-4R-ethyl-3-[(1-metyl-1,2,3-triazol-4-yl)-methylthio]-7-oxo-1-azabicyclo[3.2.0]hept-2-ene-2-carboxylate] showed a M.I.C. E. coli A15119 [4] of 0.5 µg/mL, a M.I.C. Staph aur. Pen+ [5] of 125 µg/mL and a M.I.C. Str. pneu. A9585 [6] of 8 µg/mL. It also gave a M.I.C. Staph. serum [7] of 63 µg/mL, a M.I.C. P. morg. A15153 [8] of 0.5 µg/mL and a M.I.C. Staph. aur. A9537 [9] of 32 µg/mL. The M.I.C. P. rett. A22424 [10] was 4 µg/mL, the M.I.C. Ser. mars. A20019 [11] was 1 µg/mL and the M.I.C. E. coli A20341 [12] was 0.5 µg/mL. For the same molecule, the M.I.C. Ent. clo. A9659 [13] was 2 µg/mL, the M.I.C. Staph aur. MR [14] was 125 µg/mL and the M.I.C. Str. pyo. A9604 [15] was 16 µg/mL. For the same molecule, the M.I.C. P. vul. A21559 [16] was 0.25 µg/mL, the M.I.C. K. pneu. A20468 [17] was 2 µg/mL and the M.I.C. P. mir. A9900 [18] was 0.25 µg/mL. It also gave a M.I.C. Str. faec. A20688 [19] of 125 µg/mL, a M.I.C. Ent. clo. A9656 [20] of 1 µg/mL and a M.I.C. K. pneu. A9664 [22] of 1 µg/mL. For the same molecule, the M.I.C. Ps. aeru. A9843 [23] was 32 µg/mL.
